Data taken from ChEMBL document CHEMBL5724914, “Linking interpersonal differences in gut microbiota composition and drug biotransformation activity” (2024).

Experiments:
[1] = (§1) The drug is tested on Z-027 corresponding to metagenome with ENA study accession number: PRJEB37062 and ENA sample accession number: ERS12561826 for biotransformation under anaerobic condition. The drug concentrations were measured over 9 timepoints collected between 0 and 24 hours of incubation by liquid-chromatography-coupled mass spectrometry (LC–MS); conditions: 2 µM
[2] = (§2) The drug is tested on Z-024 corresponding to pig gut metagenome with ENA study accession number: PRJEB37062 and ENA sample accession number: ERS12561823 for biotransformation under anaerobic condition. The drug concentrations were measured over 9 timepoints collected between 0 and 24 hours of incubation by liquid-chromatography-coupled mass spectrometry (LC–MS); conditions: 2 µM
[3] = as §2, with “Z-022” for “Z-024”, “mouse” for “pig”, “ERS12561821” for “ERS12561823”; conditions: 2 µM
[4] = as §2, with “Z-018” for “Z-024”, “ERS12561817” for “ERS12561823”; conditions: 2 µM
[5] = as §2, with “Z-009” for “Z-024”, “ERS12561809” for “ERS12561823”; conditions: 2 µM
[6] = as §1, with “Z-008” for “Z-027”, “ERS12561808” for “ERS12561826”; conditions: 2 µM
[7] = as §2, with “Z-006” for “Z-024”, “mouse” for “pig”, “ERS12561806” for “ERS12561823”; conditions: 2 µM
[8] = as §2, with “WLS-170” for “Z-024”, “human” for “pig”, “ERS12561762” for “ERS12561823”; conditions: 2 µM
[9] = as §2, with “WLS-073” for “Z-024”, “human” for “pig”, “ERS12561749” for “ERS12561823”; conditions: 2 µM
[10] = as §2, with “WLS-007” for “Z-024”, “human” for “pig”, “ERS12561742” for “ERS12561823”; conditions: 2 µM
[11] = as §2, with “WLS-006” for “Z-024”, “human” for “pig”, “ERS12561741” for “ERS12561823”; conditions: 2 µM
[12] = human gut metagenome, 24 h, 2 µM
[13] = human gut metagenome, 24 h, 2 µM; remark: listed apart in the source
[14] = human gut metagenome, 24 h, 2 µM; remark: listed apart in the source
[15] = human gut metagenome, 24 h, 2 µM; remark: listed apart in the source
[16] = human gut metagenome, 24 h, 2 µM; remark: listed apart in the source
[17] = human gut metagenome, 24 h, 2 µM; remark: listed apart in the source
[18] = human gut metagenome, 24 h, 2 µM; remark: listed apart in the source
[19] = human gut metagenome, 24 h, 2 µM; remark: listed apart in the source
[20] = human gut metagenome, 24 h, 2 µM; remark: listed apart in the source
Also: call rule not given here.

Structure (SMILES)	Bacterial Biotransformation [1]	Bacterial Biotransformation [2]	Bacterial Biotransformation [3]	Bacterial Biotransformation [4]	Bacterial Biotransformation [5]	Bacterial Biotransformation [6]	Bacterial Biotransformation [7]	Bacterial Biotransformation [8]	Bacterial Biotransformation [9]	Bacterial Biotransformation [10]	Bacterial Biotransformation [11]	Bacterial Biotransformation [12]	Bacterial Biotransformation [13]	Bacterial Biotransformation [14]	Bacterial Biotransformation [15]	Bacterial Biotransformation [16]	Bacterial Biotransformation [17]	Bacterial Biotransformation [18]	Bacterial Biotransformation [19]	Bacterial Biotransformation [20]
CCS(=O)(=O)CCn1c([N+](=O)[O-])cnc1C [TINIDAZOLE]	Compound metabolized	Compound metabolized	Compound metabolized	Compound metabolized	Compound metabolized	Compound metabolized	Compound metabolized	Compound metabolized	Compound metabolized	Compound metabolized	Compound metabolized	Compound metabolized	Compound metabolized	Compound metabolized	Compound metabolized	Compound metabolized	Compound metabolized	Compound metabolized	Compound metabolized	Compound metabolized
COc1ccc(CN2CCNCC2)c(OC)c1OC.Cl.Cl [TRIMETAZIDINE DIHYDROCHLORIDE]	Compound NOT metabolized	Compound NOT metabolized	Compound NOT metabolized	Compound NOT metabolized	Compound NOT metabolized	Compound NOT metabolized	Compound NOT metabolized	Compound NOT metabolized	Compound NOT metabolized	Compound NOT metabolized	Compound NOT metabolized	Compound NOT metabolized	Compound NOT metabolized	Compound NOT metabolized	Compound NOT metabolized	Compound NOT metabolized	Compound NOT metabolized	Compound NOT metabolized	Compound NOT metabolized	Compound NOT metabolized
CN1[C@@H]2CC[C@H]1C[C@@H](OC(=O)c1c[nH]c3ccccc13)C2 [TROPISETRON]	Compound NOT metabolized	Compound NOT metabolized	Compound NOT metabolized	Compound NOT metabolized	Compound NOT metabolized	Compound NOT metabolized	Compound NOT metabolized	Compound NOT metabolized	Compound NOT metabolized	Compound NOT metabolized	Compound NOT metabolized	Compound NOT metabolized	Compound NOT metabolized	Compound NOT metabolized	Compound NOT metabolized	Compound NOT metabolized	Compound NOT metabolized	Compound NOT metabolized	Compound NOT metabolized	Compound NOT metabolized
